From patent publication US20230414626A1, “INDUCTION OF FERROPTOSIS FOR CANCER THERAPY” (Memorial Sloan Kettering Cancer Center, priority 2020, published 2023)

Test system: PTEN-defective PC-3 prostate cancer xenograft tumors
Assay: In vivo xenograft mouse model, PC-3
Conditions: PC-3 xenograft, nu/nu mice; IKE 50 mg/kg daily i.p.; CCI-779 2 mg/kg daily i.p.
Procedure: FIG. 6 A-F. Combination of mTORC1 inhibition with ferroptosis induction leads to tumor regression in vivo. (A) CRISPR/Cas9-mediated, Dox-induced GPX4 knockout (GPX4-iKO) in BT474 cells, monitored by western blot. (B) Images of resected tumors from mice xenografted with GPX4-iKO BT474 cells. Groups of mice were treated with CCI-779 and/or Dox as indicated (n=6 per group). See Methods for detail. (C) Representative haematoxylin and eosin (H&E) and immunostaining images of GPX4, Ki67, PTGS2 and pS235/236 S6, all counterstained with haematoxylin (blue), are shown from sections of xenografted tumors. Scale bar, 50 μm. (D) Growth curves of BT474 tumors of each group. Data are plotted as mean±s.d., n=6, on the linear scale for actual tumor size (upper panel) or the log 2 scale for the fold change of tumors (bottom panel). (E) Growth curves of PC-3 tumors of each group (n=6), on the linear scale for actual tumor size (upper panel) or the log 2 scale for the fold change of tumor size (bottom panel). […]
FIG. 13 A-E. Combination of mTORC1 inhibition with ferroptosis induction leads to tumor regression. […] (B) BT474 tumor volume was measured every day for each mouse. […] (E) PC-3 tumor volume was measured every day for each mouse. […]
For PC-3 tumor models, male athymic nu/nu mice aged 5 to 6 weeks were injected in the right flank with 5×10^6 PC-3 cells. Tumors were measured with callipers daily. […]

Q: Which tumor growth does the source give for `CC(C)Oc1ccc(C(=O)Cn2ccnc2)cc1-n1c(CN2CCN(C(=O)COc3ccc(Cl)cc3)CC2)nc2ccccc2c1=O` [IKE, imidazole ketone erastin] here?
A: The tumor growth was “no effects on tumor growth”.
